Data as given in PubChem BioAssay AID248 (DTP/NCI, 2004).
Where “and” joins values, the source holds several entries; their conditions need not be identical. Equal values may be shown once. Toxic doses and inconclusive results are not listed. Rule as the data show it: active = T/C of 150% or more; inactive = T/C below 125%.

Test system: L1210 leukemia ip in BDF1 mice, survival T/C
Test: NCI In Vivo Anticancer Drug Screen. Data for tumor model L1210 Leukemia (intraperitoneal) in B6D2F1 (BDF1) mice
Conditions: endpoint: mean survival time, higher = longer survival
Summary of the method: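 Tumor cells were implanted, animals were treated, and survival was followed. The result divides the treated measurement by the vehicle-control measurement.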

[1] = dose: 100.0 mg/kg/injection, schedule: Q01DX009 (ip), vehicle: saline
[2] = dose: 100.0 mg/kg/injection, schedule: Q01DX009 (ip), vehicle: saline with Tween-80
[3] = dose: 100.0 mg/kg/injection, schedule: Q04DX002 (ip), vehicle: saline with Tween-80
[4] = dose: 200.0 mg/kg/injection, schedule: Q01DX009 (ip), vehicle: saline with Tween-80
[5] = dose: 200.0 mg/kg/injection, schedule: Q04DX002 (ip), vehicle: saline with Tween-80
[6] = dose: 400.0 mg/kg/injection, schedule: Q04DX002 (ip), vehicle: saline with Tween-80
[7] = dose: 100.0 mg/kg/injection, schedule: Q04DX003 (ip), vehicle: saline with Tween-80
[8] = dose: 200.0 mg/kg/injection, schedule: Q04DX003 (ip), vehicle: saline with Tween-80
[9] = dose: 400.0 mg/kg/injection, schedule: Q04DX003 (ip), vehicle: saline with Tween-80
[10] = dose: 50.0 mg/kg/injection, schedule: Q01DX009 (ip), vehicle: saline with Tween-80
[11] = dose: 100.0 mg/kg/injection, schedule: Q04DX003 (ip), vehicle: saline

Measured: T/C

C=C(Br)CNC(=O)C(C(F)(F)F)C(F)(F)F
inactive: dose: 12.5 mg/kg/injection, schedule: Q01DX009 (ip), vehicle: Klucel (hydroxypropylcellulose) (HPC) 95 % of control | dose: 12.5 mg/kg/injection, schedule: Q04DX003 (ip), vehicle: Klucel (hydroxypropylcellulose) (HPC) 96 % of control | dose: 25.0 mg/kg/injection, schedule: Q01DX009 (ip), vehicle: Klucel (hydroxypropylcellulose) (HPC) 97 % of control | dose: 25.0 mg/kg/injection, schedule: Q04DX003 (ip), vehicle: Klucel (hydroxypropylcellulose) (HPC) 98 % of control | dose: 50.0 mg/kg/injection, schedule: Q01DX009 (ip), vehicle: Klucel (hydroxypropylcellulose) (HPC) 95 % of control | dose: 50.0 mg/kg/injection, schedule: Q04DX003 (ip), vehicle: Klucel (hydroxypropylcellulose) (HPC) 96 % of control

Nc1ccn(Cc2cccc3ccccc23)c(=O)n1
inactive: dose: 100.0 mg/kg/injection, schedule: Q04DX003 (ip), vehicle: gum acacia 93 % of control | dose: 200.0 mg/kg/injection, schedule: Q04DX003 (ip), vehicle: gum acacia 90 % of control | dose: 400.0 mg/kg/injection, schedule: Q04DX003 (ip), vehicle: gum acacia 90 % of control

O=C1C(n2ccc(=O)[nH]c2=O)CCN1CCO (stereo unspecified)
inactive: [1] 105 % of control | dose: 200.0 mg/kg/injection, schedule: Q01DX009 (ip), vehicle: saline 100 % of control | dose: 400.0 mg/kg/injection, schedule: Q01DX009 (ip), vehicle: saline 97 % of control

O=C(Nc1ccccc1Cl)Oc1ccc(Cl)cc1Cc1ccccc1
inactive: [2] 91 % of control | [3] 100 % of control | [4] 90 % of control | [5] 91 % of control | [6] 91 % of control

Cc1cc2nc3c(N)ccc(N)c3nc2cc1N
inactive: [3] 97 % of control | [5] 97 % of control | [6] 105 % of control

O=C(O)c1ccc(COc2ccc([N+](=O)[O-])cc2Cl)cc1
inactive: dose: 100.0 mg/kg/injection, schedule: Q01DX009 (ip), vehicle: saline sonified 96 % of control | [7] 96 % of control | dose: 200.0 mg/kg/injection, schedule: Q01DX009 (ip), vehicle: saline sonified 97 % of control | [8] 96 % of control | [9] 101 % of control

Cc1ccc(NS(=O)(=O)c2ccc(F)cc2)cc1C
inactive: dose: 100.0 mg/kg/injection, schedule: Q01DX009 (ip), vehicle: Klucel (hydroxypropylcellulose) (HPC) 95 % of control | dose: 100.0 mg/kg/injection, schedule: Q04DX003 (ip), vehicle: Klucel (hydroxypropylcellulose) (HPC) 95 % of control | dose: 200.0 mg/kg/injection, schedule: Q01DX009 (ip), vehicle: Klucel (hydroxypropylcellulose) (HPC) 95 % of control | dose: 200.0 mg/kg/injection, schedule: Q04DX003 (ip), vehicle: Klucel (hydroxypropylcellulose) (HPC) 105 % of control | dose: 400.0 mg/kg/injection, schedule: Q01DX009 (ip), vehicle: Klucel (hydroxypropylcellulose) (HPC) 97 % of control | dose: 400.0 mg/kg/injection, schedule: Q04DX003 (ip), vehicle: Klucel (hydroxypropylcellulose) (HPC) 101 % of control

COc1ccc(OC)c(Br)c1
inactive: [2] 102 % of control | [7] 100 % of control | [4] 107 % of control | [8] 100 % of control | dose: 400.0 mg/kg/injection, schedule: Q01DX009 (ip), vehicle: saline with Tween-80 110 % of control | [9] 104 % of control

Fc1cc(F)c(F)c(Nc2ccccc2)c1F
inactive: dose: 25.6 mg/kg/injection, schedule: Q04DX002 (ip), vehicle: saline with Tween-80 113 % of control | dose: 64.0 mg/kg/injection, schedule: Q04DX002 (ip), vehicle: saline with Tween-80 89 % of control | dose: 160.0 mg/kg/injection, schedule: Q04DX002 (ip), vehicle: saline with Tween-80 95 % of control | [6] 106 % of control

O=[N+]([O-])c1ccc(N=Cc2ccccc2O)cc1.O=[N+]([O-])c1ccc(N=Cc2ccccc2O)cc1.[Cu]
inactive: dose: 12.5 mg/kg/injection, schedule: Q01DX009 (ip), vehicle: saline with Tween-80 100 % of control | dose: 25.0 mg/kg/injection, schedule: Q01DX009 (ip), vehicle: saline with Tween-80 94 % of control | [10] 93 % of control

O=C1C=CC[C@H](/C=C/c2ccccc2)O1
inactive: dose: 50.0 mg/kg/injection, schedule: Q01DX001 (ip), vehicle: alcohol 101 % of control | dose: 100.0 mg/kg/injection, schedule: Q01DX001 (ip), vehicle: alcohol 103 % of control | dose: 200.0 mg/kg/injection, schedule: Q01DX001 (ip), vehicle: alcohol 101 % of control | dose: 400.0 mg/kg/injection, schedule: Q01DX001 (ip), vehicle: alcohol 107 % of control

CCCCC(=O)N/N=C/c1ccccc1Cl
inactive: dose: 100.0 mg/kg/injection, schedule: Q01DX001 (ip), vehicle: saline 102 % of control | dose: 200.0 mg/kg/injection, schedule: Q01DX001 (ip), vehicle: saline 104 % of control

FC(F)(F)c1nc(S)cc(=S)[nH]1
inactive: dose: 50.0 mg/kg/injection, schedule: Q01DX Z (ip), vehicle: methylcellulose (MC) 96 % of control | dose: 100.0 mg/kg/injection, schedule: Q01DX Z (ip), vehicle: methylcellulose (MC) 93 % of control

Nc1cc2c(cc1Br)-c1ccccc1/C2=N\O
inactive: dose: 100.0 mg/kg/injection, schedule: Q01DX001 (ip), vehicle: carboxymethylcellulose (CMC) 102 % of control | dose: 200.0 mg/kg/injection, schedule: Q01DX001 (ip), vehicle: carboxymethylcellulose (CMC) 102 % of control | dose: 400.0 mg/kg/injection, schedule: Q01DX001 (ip), vehicle: carboxymethylcellulose (CMC) 100 % of control

CCOC(=O)OC1C(OC)OC2COC(c3ccccc3)OC2C1OC(=O)OCC (stereo unspecified)
inactive: dose: 100.0 mg/kg/injection, schedule: Q04DX002 (ip), vehicle: other 103 % of control | dose: 200.0 mg/kg/injection, schedule: Q04DX002 (ip), vehicle: other 97 % of control | dose: 400.0 mg/kg/injection, schedule: Q04DX002 (ip), vehicle: other 100 % of control

CC1([N+](=O)[O-])COCOC1
inactive: [11] 103 % of control | dose: 200.0 mg/kg/injection, schedule: Q04DX003 (ip), vehicle: saline 95 % of control | dose: 400.0 mg/kg/injection, schedule: Q04DX003 (ip), vehicle: saline 94 % of control

Cc1ccc(C(C)C)c2cc(C=O)c(O)cc12
inactive: dose: 100.0 mg/kg/injection, schedule: Q01DX001 (sc), vehicle: olive oil, sesame oil, peanut oil 95 % of control | dose: 200.0 mg/kg/injection, schedule: Q01DX001 (sc), vehicle: olive oil, sesame oil, peanut oil 109 % of control | dose: 400.0 mg/kg/injection, schedule: Q01DX001 (sc), vehicle: olive oil, sesame oil, peanut oil 101 % of control

CC1(C)N=C(N)N=C(N)N1c1cccc(CN)c1
inactive: dose: 25.0 mg/kg/injection, schedule: Q01DX009 (ip), vehicle: saline 101 % of control | dose: 25.0 mg/kg/injection, schedule: Q04DX003 (ip), vehicle: saline 101 % of control | dose: 50.0 mg/kg/injection, schedule: Q01DX009 (ip), vehicle: saline 102 % of control and 103 % of control | dose: 50.0 mg/kg/injection, schedule: Q04DX003 (ip), vehicle: saline 103 % of control | [1] 98 % of control and 86 % of control | [11] 102 % of control and 105 % of control

C/C(Cc1cc(C)[nH]c(=S)n1)=N\NC(N)=O
inactive: [10] 92 % of control | [2] 92 % of control

CC(C)(O)CNC1CCCCC1
inactive: dose: 75.0 mg/kg/injection, schedule: Q01DX001 (ip), vehicle: saline 108 % of control

CCCC(C)CC1CCCCC1=O (stereo unspecified)
inactive: dose: 75.0 mg/kg/injection, schedule: Q04DX003 (ip), vehicle: saline 97 % of control | dose: 150.0 mg/kg/injection, schedule: Q04DX003 (ip), vehicle: saline 96 % of control | dose: 300.0 mg/kg/injection, schedule: Q04DX003 (ip), vehicle: saline 103 % of control
